Measurements: patent US9526718B2, “Combination of effective substances causing synergistic effects of multiple targeting and use thereof” (VIVOZON, INC., priority 2011, dated 2016)

Columns and labels:
[1] = tested on: neuropathic pain rat model (SNL); assay: Neuropathic pain rat model (spinal nerve ligation, SNL), von Frey up-down mechanical threshold; assay type: in vivo; details: Example 1, s.c., alone or combined, MDL 11,939 2 or 5 mg/kg, ORG-25543 10 or 20 mg/kg, 30 and 60 min after administration
Procedure: In order to prepare a neuropathic pain rat model (spinal nerve ligation (SNL) model), a male adult Sprague-Dawley rat was anaesthetized with isoflurane and its spinal nerves L5 were tied firmly (Kim and Chung, An experimental model for peripheral neuropathy produced by segmental spinal nerve ligation in the rat. Pain, 50: 355-363, 1992). One week later after surgical operation, MDL 11,939 and ORG-25543 were administered respectively or in combination thereof, and a pain relieving effect was monitored.
MDL 11,939 (Tocris Bioscience, USA) and ORG-25543 (CBvest inc, Korea) were dissolved in DMA/PG (2:8). MDL 11,939 was subcutaneously injected into the rat model and, immediately, ORG-25543 was subcutaneously injected into another part of the rat model. Then, 30 minutes and 60 minutes after administration, the extent of pain suppression was analyzed based on behaviors of the rat model.
The behavioral experiment was carried out with strict observance of clinical test procedures including criteria on randomization, a blind test, and use of a control group. By providing a mechanical stimulus to the left sole of the foot, a shrinking reaction to the stimulus was measured. This measurement value was determined by an up-down method using a von Frey monofilament (Baik et al., 2003 E. J. Baik, J. M. Chung and K. Chung, Peripheral norepinephrine exacerbates neuritis-induced hyperalgesia, J Pain 4 (2003), pp. 212-221; Chaplan et al., 1994 S. R. Chaplan, F. W. Bach, J. W. Pogrel, J. M. Chung and T. L. Yaksh, Quantitative assessment of tactile allodynia in the rat paw, J Neurosci Methods 53 (1994), pp. 55-63; Dixon, 1980 W. J. Dixon, Efficient analysis of experimental observations, Annu. Rev. Pharmacol. Toxicol. 20 (1980), pp. 441-462).
In the same manner as Example 1, a male adult Sprague-Dawley rat was anaesthetized with isoflurane and its spinal nerves L5 were tied firmly. […]

[2] = tested on: serotonin release; details: hypothalamic, rat; cited from earlier work
[3] = target: 5-HT2A receptor (Homo sapiens, UniProt P28223); details: cited from earlier work
5-HT2A receptor, sequence (P28223 whole entry): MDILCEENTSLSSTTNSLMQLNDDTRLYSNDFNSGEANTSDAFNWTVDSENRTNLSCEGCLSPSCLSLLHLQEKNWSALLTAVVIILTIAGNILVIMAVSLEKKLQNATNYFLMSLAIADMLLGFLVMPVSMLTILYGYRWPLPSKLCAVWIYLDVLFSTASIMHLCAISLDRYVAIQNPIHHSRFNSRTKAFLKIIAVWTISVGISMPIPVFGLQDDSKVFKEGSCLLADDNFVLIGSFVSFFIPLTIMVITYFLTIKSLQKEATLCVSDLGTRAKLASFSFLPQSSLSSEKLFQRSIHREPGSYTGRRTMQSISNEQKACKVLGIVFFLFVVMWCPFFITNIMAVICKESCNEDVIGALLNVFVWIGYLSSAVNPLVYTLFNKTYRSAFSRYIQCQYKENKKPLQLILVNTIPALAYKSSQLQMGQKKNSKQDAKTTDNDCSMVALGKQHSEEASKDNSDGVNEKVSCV

Structure (SMILES): OC(c1ccccc1)C1CCN(CCc2ccccc2)CC1 (centres unmarked) [MDL 11,939]
- pain relieving (analgesic) effect [1]: no or very little pain relieving effect

Structure (SMILES): COc1cc(C(=O)NCC2(N(C)C)CCCC2)cc(OC)c1OCc1ccccc1 [ORG-25543]
- pain relieving (analgesic) effect [1]: no effect
- pain relieving (analgesic) effect ([1]; listed as ORG2553): no or very little pain relieving effect

Structure (SMILES): COc1cc2c(cc1OC)[C@@H]1Cc3ccc(OC)c(OC)c3CN1CC2 [d1-tetrahydropalmatine]
- serotonin release [2]: mediates inhibition of serotonin release

Structure (SMILES): CC(C)=CCc1c(O)cc2oc3cc(O)c(O)c(CC=C(C)C)c3c(=O)c2c1O [γ-mangostin]
- antagonistic effect with respect to 5-HT2A receptor [3]: antagonistic effect
